From patent publication US5786348A, “Methods for preparation and use of 1α,24(S)-dihydroxy vitamin D2” (priority 1995, dated 1998)
“Also recorded” adds a separate entry of the source.

What was measured:
[1] = test system: human cancer cell lines BCA-1 or ZR-75-1 (breast) and COL-1 (colon); experiment: Antiproliferative activity in human cancer cell lines (thymidine incorporation); format: cell-based; details: dose-response in breast and colon cancer cell lines
Procedure: Dose-response studies are conducted with 1α,24(S)-(OH)2 D2 in a battery of human cancer cell lines. These cell lines include, but are not limited to, the following: BCA-1 or ZR-75-1 (breast) and COL-1 (colon), as described by Shieh, H. L. et al. Chem. Biol. Interact., vol. 81, pp. 35-55 (1982). In this study, appropriate solvents are used as negative controls.

Human keratinocytes = experiment: Epidermal cell differentiation and proliferation testing; format: cell-based; details: 0.05 to 5 μg/ml; against ethanol control cultures
Procedure: Human keratinocytes are cultured according to known modifications of the system originally described by Rheinwald and Green (Cell, vol. 6, p. 331 (1975)). The 1α,24(S)-dihydroxy vitamin D2, dissolved in ethanol, is added to cells to yield a variety of concentrations between 0.05 and 5 μg/ml with the ethanol concentration not to exceed 0.5% v/v. Control cultures are supplemented with ethanol at a final concentration of 0.5% v/v.
Differentiation and proliferation of epidermal cells in culture is examined by:
1. quantitation of cornified envelopes;
2. quantitation of cell density of cells attached to disks;
3. monitoring transglutaminase activity; or
4. monitoring DNA synthesis by incorporation of ^3 H-thymidine.

vitamin D receptor (VDR) = target: T1, vitamin D receptor (VDR) (Homo sapiens, UniProt P11473); experiment: Vitamin D-dependent transcriptional activation: growth hormone production in COS-1 cells co-transfected with VDR plasmid and VDRE-GH reporter; format: cell-based; details: for Total GH Production: averages of duplicate determinations
T1 sequence (P11473 1-427): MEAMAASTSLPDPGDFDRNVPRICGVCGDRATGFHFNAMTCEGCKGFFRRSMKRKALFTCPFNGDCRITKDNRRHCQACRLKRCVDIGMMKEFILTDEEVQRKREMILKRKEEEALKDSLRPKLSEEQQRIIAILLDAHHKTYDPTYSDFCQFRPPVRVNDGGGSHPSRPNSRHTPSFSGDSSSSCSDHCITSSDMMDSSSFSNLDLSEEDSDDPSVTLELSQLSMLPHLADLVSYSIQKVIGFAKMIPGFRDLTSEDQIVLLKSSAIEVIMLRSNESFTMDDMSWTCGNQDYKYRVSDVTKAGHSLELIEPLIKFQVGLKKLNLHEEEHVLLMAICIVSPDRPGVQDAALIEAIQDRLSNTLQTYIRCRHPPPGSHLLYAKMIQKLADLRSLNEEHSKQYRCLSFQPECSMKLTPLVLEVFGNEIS
Procedure: The biological activity in vitro of chemically synthesized 1α,24(S)-(OH)2 D2 and 1α,24(R)-(OH)2 D2 was measured using a vitamin D-dependent transcriptional activation model system in which a vitamin D receptor (VDR)-expressing plasmid pSG5-hVDR1/3and a plasmid p(CT4)^4 TKGH containing a Growth Hormone (GH)-gene, under the control of a vitamin D-responsive element (VDRE) were co-transfected into Green monkey kidney, COS-1 cells. DNA's for these two vectors were supplied by Dr. Mark Haussler, Department of Biochemistry, University of Arizona, Tucson, Ariz.
Transfected cells were incubated with vitamin D metabolites and growth hormone production was measured.

[2] = Hypocalcemia and metabolic bone disease in chronic hemodialysis patients; format: in vivo, human; details: greater than 3.0 μg/day, twelve months
Procedure: A twelve-month, double-blind, placebo-controlled clinical trial is conducted with thirty men and women with renal disease who are undergoing chronic hemodialysis. […] Efficacy is evaluated by pre- and post-treatment comparisons of the two patient groups with regard to (a) direct measurements of intestinal calcium absorption, (b) total body calcium retention, (c) radial and spinal bone mineral density, or (d) determinations of serum calcium. Safety is evaluated by regular monitoring of serum calcium.

[3] = Prophylaxis of postmenopausal bone loss in healthy postmenopausal women; format: in vivo, human
Procedure: A clinical study is conducted with healthy postmenopausal women having ages between 55 and 60 years. The study involves up to 80 patients randomly divided into two treatment groups, and continues for 24 to 36 months. One treatment group receives a constant dosage of 1α,24(S)-dihydroxy vitamin D2 (u.i.d.; a dose level at or above 1.0 μg/day) and the other receives a matching placebo. The study is conducted as indicated in Example 12 above.

bovine thymus VDR = target: T2, bovine thymus VDR (Bos taurus, UniProt Q28037); experiment: Radioreceptor assay with bovine thymus VDR (Incstar), displacement of 3H-1α,25-(OH)2 D3; format: binding
T2 construct: commercially available kit of bovine thymus VDR; purchased Incstar (Stillwater, Minn.); host or cells: bovine thymus
T2 sequence (Q28037 1-426): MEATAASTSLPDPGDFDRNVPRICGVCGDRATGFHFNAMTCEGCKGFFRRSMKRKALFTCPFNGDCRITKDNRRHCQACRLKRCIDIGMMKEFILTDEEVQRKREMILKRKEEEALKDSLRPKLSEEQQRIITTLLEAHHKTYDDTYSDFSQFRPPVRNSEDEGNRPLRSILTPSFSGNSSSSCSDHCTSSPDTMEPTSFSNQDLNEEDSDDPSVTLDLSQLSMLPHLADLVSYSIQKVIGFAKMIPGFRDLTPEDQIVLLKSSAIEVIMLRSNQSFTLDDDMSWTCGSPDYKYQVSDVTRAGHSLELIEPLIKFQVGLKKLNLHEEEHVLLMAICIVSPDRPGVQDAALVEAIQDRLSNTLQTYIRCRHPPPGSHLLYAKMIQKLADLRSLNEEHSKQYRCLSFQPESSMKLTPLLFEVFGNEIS
Source text: Purified 1α,24(S)-(OH)2 D2 was quantitated by photodiode array spectrophotometry and assayed in the radioreceptor assay.
The purified 1α,24(R)-(OH)2 D2 and 1α,24(S)-(OH)2 D2 epimers were quantitated by ultraviolet spectroscopy. The concentration of 1α,24(R)-(OH)2 D2 required to produce the same displacement of ^3 H-1α,25-(OH)2 D3 tracer from the receptor was 20 to 30 times that required for 1α,24(S)-(OH)2 D2, as shown in FIG. 4.

[4] = inducer molar concentration 5 × 10^-8
[5] = inducer molar concentration 5 × 10^-9
[6] = inducer molar concentration 5 × 10^-10

Compound: C=C1/C(=C\C=C2/CCC[C@]3(C)[C@@H]([C@H](C)/C=C/[C@@](C)(O)C(C)C)CC[C@@H]23)C[C@@H](O)C[C@@H]1O [1α,24(S)-(OH)2 D2, 1α,24(S)-dihydroxy vitamin D2]
- Antiproliferative activity (inhibition of thymidine incorporation) [1]: potent (and reversible) antiproliferative activity
- Cell density of attached cells (Human keratinocytes): fewer attached cells
- Cornified envelopes (Human keratinocytes): more cornified envelopes
- DNA synthesis (3H-thymidine incorporation) (Human keratinocytes): lower DNA synthesis
- Transglutaminase activity (Human keratinocytes): higher transglutaminase activity
- Activity in the transcriptional activation system relative to 1α,24(R)-(OH)2 D2 (vitamin D receptor (VDR); compared with the 24(R) epimer): significantly more activity
- Net vitamin D-inducible GH-production (vitamin D receptor (VDR); [4]): 1138 ng/mL
- Total GH Production (vitamin D receptor (VDR); [4]): 1182 ng/mL
- Net vitamin D-inducible GH-production (vitamin D receptor (VDR); [5]): 1306 ng/mL
- Total GH Production (vitamin D receptor (VDR); [5]): 1350 ng/mL
- Net vitamin D-inducible GH-production (vitamin D receptor (VDR); [6]): 381 ng/mL
- Total GH Production (vitamin D receptor (VDR); [6]): 425 ng/mL
- Incidence of hypercalcemia [2]: insignificant incidence
- Intestinal calcium absorption (double-isotope technique) [2]: significantly increases
- Radial and spinal bone densities relative to baseline [2]: stable
- Serum calcium levels [2]: normalized
- Total body calcium relative to baseline [2]: stable values
- Losses in total body calcium, radial or spinal bone densities relative to baseline ([3]; at or above 1.0 μg/day, 24 to 36 months): reduced losses
- Monitored safety parameters ([3]; long-term administration at or above 1.0 μg/day): confirm the safety
- IC50 (bovine thymus VDR; bovine thymus VDR radioreceptor assay, read-out: Half-maximal binding (converted)): ~0.35 nM
- Affinity for VDR relative to 1α,25-(OH)2 D3 (bovine thymus VDR; compared with 1α,25-(OH)2 D3): two-fold less competitive; also recorded: two-fold lower affinity
